Source: patent US20150197492A1, “NOVEL INDENO[1,2-c]QUINOLIN-11-ONE DERIVATIVES, PREPARATION METHOD AND APPLICATION THEREOF” (National Defense Medical Center, priority 2014, published 2015)
Read-outs that look alike come from different tables or passages of the source.

Legend:
Format in all cases: cell-based
[1] = system: NCI-H226; test: cells; conditions: NCI-H226 (Non-Small Cell Lung Cancer), 10 μM, 48 hours
[2] = system: UACC-257; test: cells; conditions: UACC-257 (Melanoma), 10 μM, 48 hours
[3] = system: SW-620; test: cells; conditions: SW-620 (Colon Cancer), 10 μM, 48 hours
[4] = system: SNB-19; test: cells; conditions: SNB-19 (CNS Cancer), 10 μM, 48 hours
[5] = system: SK-MEL-28; test: cells; conditions: SK-MEL-28 (Melanoma), 10 μM, 48 hours
[6] = system: MALME-3M; test: cells; conditions: MALME-3M (Melanoma), 10 μM, 48 hours
[7] = system: RXF 393; test: cells; conditions: RXF 393 (Renal Cancer), 10 μM, 48 hours
[8] = system: T-47D; test: cells; conditions: T-47D (Breast Cancer), 10 μM, 48 hours
[9] = system: 786-0; test: cells; conditions: 786-0 (Renal Cancer), 10 μM, 48 hours
[10] = system: HT29; test: cells; conditions: HT29 (Colon Cancer), 10 μM, 48 hours
[11] = system: UACC-62; test: cells; conditions: UACC-62 (Melanoma), 10 μM, 48 hours
[12] = system: 55 to 60 cancer cell lines; conditions: 10 μM, 48 hours; for Mean (mean growth percentage of the tested cancer cell lines): all tested cell lines
[13] = system: IGROV1; test: cells; conditions: IGROV1 (Ovarian Cancer), 10 μM, 48 hours
[14] = system: MDA-MB-435; test: cells; conditions: MDA-MB-435 (Melanoma), 10 μM, 48 hours
[15] = system: SNB-75; test: cells; conditions: SNB-75 (CNS Cancer), 10 μM, 48 hours
[16] = system: SK-OV-3; test: cells; conditions: SK-OV-3 (Ovarian Cancer), 10 μM, 48 hours
[17] = system: A498; test: cells; conditions: A498 (Renal Cancer), 10 μM, 48 hours
[18] = system: SN12C; test: cells; conditions: SN12C (Renal Cancer), 10 μM, 48 hours
[19] = system: RPMI-8226; test: cells; conditions: RPMI-8226 (Leukemia), 10 μM, 48 hours
[20] = system: human PC-3 cells; test: Sulforhodamine B (SRB) assay, cytotoxicity against PC-3 cells; conditions: for IC50: Homo sapiens
How it was run: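 PC-3 cells in 5% FBS were fixed with 10% TCA after 24 h as T0, then treated with compound for 48 h, fixed, stained with 0.4% SRB in 1% acetic acid and solubilized in 10 mmol/L Trizma base. Absorbance was read at 515 nm. GI% = 100−[(Tx−T0)/(C−T0)]×100, and IC50 is the concentration halving total protein.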

[21] = system: MDA-MB-468; test: cells; conditions: MDA-MB-468 (Breast Cancer), 10 μM, 48 hours
[22] = system: U251; test: cells; conditions: U251 (CNS Cancer), 10 μM, 48 hours
[23] = system: HCT-15; test: cells; conditions: HCT-15 (Colon Cancer), 10 μM, 48 hours
[24] = system: MCF7; test: cells; conditions: MCF7 (Breast Cancer), 10 μM, 48 hours
[25] = system: K-562; test: cells; conditions: K-562 (Leukemia), 10 μM, 48 hours
[26] = system: KM12; test: cells; conditions: KM12 (Colon Cancer), 10 μM, 48 hours
[27] = system: OVCAR-4; test: cells; conditions: OVCAR-4 (Ovarian Cancer), 10 μM, 48 hours
[28] = system: MOLT-4; test: cells; conditions: MOLT-4 (Leukemia), 10 μM, 48 hours
[29] = system: ACHN; test: cells; conditions: ACHN (Renal Cancer), 10 μM, 48 hours
[30] = system: UO-31; test: cells; conditions: UO-31 (Renal Cancer), 10 μM, 48 hours

SMILES | growth percentage [1] [%] | growth percentage [2] [%] | growth percentage [3] [%] | growth percentage [4] [%] | growth percentage [5] [%] | growth percentage [6] [%] | growth percentage [7] [%] | growth percentage [8] [%] | growth percentage [9] [%] | growth percentage [10] [%] | growth percentage [11] [%] | Mean (mean growth percentage of the tested cancer cell lines) [12] [%] | growth percentage [13] [%] | growth percentage [14] [%] | growth percentage [15] [%] | growth percentage [16] [%] | growth percentage [17] [%] | growth percentage [18] [%] | growth percentage [19] [%] | growth percentage [21] [%] | further results
CN1CCN(c2nc3ccccc3c3c2-c2ccc(Cl)cc2C3=O)CC1 [SJ-12, 9-Chloro-6-(4-methylpiperazin-1-yl)-11H-indeno[1,2-c]quinolin-11-one] | 86.17 | 95.34 | 92.76 | 85.41 | 110.81 | 106.59 | 94.00 | 76.27 | 89.51 | 93.76 | 96.67 | 88.15 | 75.03 | 98.43 | 70.00 | 87.98 | 72.81 | 83.57 | 85.92 | 95.71 | Toxicity (%) ([20]; SRB assay, PC-3 cells): 0%; GI % (10 μM) ([20]; SRB assay, PC-3 cells): 39.4%; growth percentage [22]: 85.86%; growth percentage [23]: 92.83%; growth percentage [24]: 68.30%; growth percentage [25]: 92.13%; growth percentage [26]: 99.06%; growth percentage [27]: 94.70%; growth percentage [28]: 92.90%; growth percentage [29]: 88.10%; growth percentage [30]: 47.60%
CNc1nc2ccccc2c2c1-c1ccc(Cl)cc1C2=O [SJ-1, 9-Chloro-6-(methylamino)-11H-indeno[1,2-c]quinolin-11-one] | 92.19 | 107.69 | 96.25 | 95.95 | 114.89 | 114.83 | 97.15 | 23.53 | 103.34 | 99.44 | 77.41 | 84.15 | 54.41 | 107.24 | 79.70 | 92.62 | 82.03 | 94.82 | 91.82 | -31.61 | inhibition effect in different cancer cell lines (summary of the NCI data, in words) [12]: more effective in breast cancer cell line; Toxicity (%) ([20]; SRB assay, PC-3 cells): 52.8%; GI % (10 μM) ([20]; SRB assay, PC-3 cells): 100%; growth percentage [22]: 96.03%; growth percentage [23]: 66.20%; growth percentage [24]: 5.24%; growth percentage [25]: 90.99%; growth percentage [26]: 66.82%; growth percentage [27]: 72.83%; growth percentage [28]: 93.26%; growth percentage [29]: 88.46%; growth percentage [30]: 56.91%
O=C1c2cc(Cl)ccc2-c2c(N3CCOCC3)nc3ccccc3c21 [SJ-8, 9-Chloro-6-morpholino-11H-indeno[1,2-c]quinolin-11-one] | 87.21 | 103.31 | 103.71 | 100.01 | 113.81 | 136.93 | 114.61 | 88.81 | 103.71 | 91.34 | 88.33 | 93.66 | 86.47 | 106.62 | 81.55 | 107.26 | 93.88 | 96.95 | 83.40 | 59.47 | IC50 ([20]; SRB assay, PC-3 cells, 48 hours, read-out: IC50): > 10 µM; growth percentage [22]: 95.72%; growth percentage [23]: 80.29%; growth percentage [24]: 52.31%; growth percentage [25]: 89.01%; growth percentage [26]: 109.99%; growth percentage [27]: 96.67%; growth percentage [28]: 88.74%; growth percentage [29]: 81.66%; growth percentage [30]: 45.74%
O=C1c2cc(Cl)ccc2-c2c(N3CCSCC3)nc3ccccc3c21 [SJ-9, 9-Chloro-6-thiomorpholino-11H-indeno[1,2-c]quinolin-11-one] | 94.22 | 107.44 | 91.88 | 113.43 | 110.84 | 101.05 | 106.09 | 83.86 | 99.53 | 95.52 | 94.90 | 94.75 | 72.45 | 107.70 | 72.13 | 84.60 | 99.15 | 93.10 | 95.20 | 97.71 | Toxicity (%) ([20]; SRB assay, PC-3 cells): 33.3%; GI % (10 μM) ([20]; SRB assay, PC-3 cells): 100%; growth percentage [22]: 111.96%; growth percentage [23]: 97.88%; growth percentage [24]: 49.61%; growth percentage [25]: 100.89%; growth percentage [26]: 97.97%; growth percentage [27]: 98.19%; growth percentage [28]: 93.29%; growth percentage [29]: 86.42%; growth percentage [30]: 65.33%
CN(C)c1nc2ccccc2c2c1-c1ccc(Cl)cc1C2=O [SJ-2, 9-Chloro-6-(dimethylamino)-11H-indeno[1,2-c]quinolin-11-one] | 84.79 | 101.11 | 96.35 | 104.19 | 113.43 | 111.50 | 101.32 | 44.88 | 108.01 | 94.89 | 78.16 | 87.15 | 83.38 | 97.33 | 69.12 | 99.12 | 96.00 | 95.38 | 88.05 | 0.60 | inhibition effect in different cancer cell lines (summary of the NCI data, in words) [12]: more effective in breast cancer cell line; IC50 ([20]; PC-3, 48 h): 4.34 µM; growth percentage [22]: 98.98%; growth percentage [23]: 80.49%; growth percentage [24]: 23.99%; growth percentage [25]: 88.81%; growth percentage [26]: 94.44%; growth percentage [27]: 84.28%; growth percentage [28]: 88.92%; growth percentage [29]: 87.55%; growth percentage [30]: 48.63%
